# According to patent publication US20260007681A1, “INDOLE DERIVATIVES AS ESTROGEN RECEPTOR DEGRADERS” (REGENTS OF THE UNIVERSITY OF MICHIGAN, priority 2022, published 2026):
# Molecular target: ER (Homo sapiens (Human), UniProt P03372)
# Assay: Western blot analysis (Compounds B1-B278)
# Format: cell-based
# Details: ER degradation by traditional Western blot; DC50 classes
# Outline: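 Relative target-protein levels come from densitometry of immunoblots, normalized to GAPDH. Lysates from treated cells were prepared in RIPA buffer (pH 7.6) containing protease inhibitors, and equal protein amounts, checked by BCA, were separated on 10% gels and blotted onto PVDF.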
# Chain of ER (P03372 whole entry): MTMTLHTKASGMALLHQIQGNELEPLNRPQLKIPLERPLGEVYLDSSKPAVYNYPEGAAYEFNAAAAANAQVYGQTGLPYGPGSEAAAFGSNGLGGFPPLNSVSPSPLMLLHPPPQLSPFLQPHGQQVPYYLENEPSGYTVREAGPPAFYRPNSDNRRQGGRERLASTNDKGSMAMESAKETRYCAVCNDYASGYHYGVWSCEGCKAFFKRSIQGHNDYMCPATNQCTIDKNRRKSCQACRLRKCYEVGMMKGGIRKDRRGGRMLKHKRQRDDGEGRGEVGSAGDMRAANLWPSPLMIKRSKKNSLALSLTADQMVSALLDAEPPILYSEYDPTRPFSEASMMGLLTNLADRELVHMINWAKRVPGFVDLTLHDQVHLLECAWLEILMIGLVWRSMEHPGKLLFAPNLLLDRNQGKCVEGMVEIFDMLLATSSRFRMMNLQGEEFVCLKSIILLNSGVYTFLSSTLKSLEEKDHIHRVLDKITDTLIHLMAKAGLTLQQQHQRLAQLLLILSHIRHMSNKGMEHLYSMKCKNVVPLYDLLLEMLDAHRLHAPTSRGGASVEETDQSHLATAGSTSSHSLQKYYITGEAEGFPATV
row,Traditional Western Degradation Potency,SMILES
1,C (“C”: >100 nM),"C[C@@H]1Cc2c([nH]c3ccccc23)[C@@H](c2c(F)cc(N3CC(C(=O)N4CCC(CN5Cc6cc7c(cc6C5)C(=O)N(C5CCC(=O)NC5=O)C7=O)CC4)C3)cc2F)N1CC(F)F (stereo partly drawn) [Compound B210, 6-((1-(1-(4-((1R,3R)-2-(2,2-difluoroethyl)-3-methyl-2,3,4,9-tetrahydro-1H-pyrido[3,4-b]indol-1-yl)-3,5-difluorophenyl)azetidine-3-carbonyl)piperidin-4-yl)methyl)-2-(2,6-dioxopiperidin-3-yl)-6,7-dihydropyrrolo[3,4-f]isoindole-1,3(2H,5H)-dione]"
2,B (“B”: 10-100 nM),"C[C@@H]1Cc2c([nH]c3ccccc23)[C@@H](c2c(F)cc(N3CCC(N4CC(CN5Cc6cc7c(cc6C5)C(=O)N(C5CCC(=O)NC5=O)C7=O)C4)CC3)cc2F)N1CC(F)F (stereo partly drawn) [Compound B57, 6-((1-(1-(4-((1R,3R)-2-(2,2-difluoroethyl)-3-methyl-2,3,4,9-tetrahydro-1H-pyrido[3,4-b]indol-1-yl)-3,5-difluorophenyl)piperidin-4-yl)azetidin-3-yl)methyl)-2-(2,6-dioxopiperidin-3-yl)-6,7-dihydropyrrolo[3,4-f]isoindole-1,3(2H,5H)-dione]"
3,A (“A”: <10 nM),"C[C@@H]1Cc2c([nH]c3ccccc23)[C@@H](c2c(F)cc(N3CCC(CN4CCC(N5Cc6cc7c(cc6C5)C(=O)N(C5CCC(=O)NC5=O)C7=O)C4)CC3)cc2F)N1CC(F)F (stereo partly drawn) [Compound B66, 6-(1-((1-(4-((1R,3R)-2-(2,2-difluoroethyl)-3-methyl-2,3,4,9-tetrahydro-1H-pyrido[3,4-b]indol-1-yl)-3,5-difluorophenyl)piperidin-4-yl)methyl)pyrrolidin-3-yl)-2-(2,6-dioxopiperidin-3-yl)-6,7-dihydropyrrolo[3,4-f]isoindole-1,3(2H,5H)-dione]"
4,A (“A”: <10 nM),"C[C@@H]1Cc2c([nH]c3ccccc23)[C@@H](c2c(F)cc(N3CCC(CN4CCC(N5Cc6cc7c(cc6C5)C(=O)N(C5CCC(=O)NC5=O)C7=O)CC4)CC3)cc2F)N1CC(F)F (stereo partly drawn) [Compound B213, 6-(1-((1-(4-((1R,3R)-2-(2,2-difluoroethyl)-3-methyl-2,3,4,9-tetrahydro-1H-pyrido[3,4-b]indol-1-yl)-3,5-difluorophenyl)piperidin-4-yl)methyl)piperidin-4-yl)-2-(2,6-dioxopiperidin-3-yl)-6,7-dihydropyrrolo[3,4-f]isoindole-1,3(2H,5H)-dione]"

# Further lines, the molecule ahead of its results:
row,SMILES,Traditional Western Degradation Potency
1,"C[C@@H]1Cc2c([nH]c3ccccc23)[C@@H](c2c(F)cc(C3CCC(C(=O)N4CC(N5Cc6cc7c(cc6C5)C(=O)N(C5CCC(=O)NC5=O)C7=O)C4)CC3)cc2F)N1CC(F)F (stereo partly drawn) [Compound B80, 6-(1-(4-(4-((1R,3R)-2-(2,2-difluoroethyl)-3-methyl-2,3,4,9-tetrahydro-1H-pyrido[3,4-b]indol-1-yl)-3,5-difluorophenyl)cyclohexane-1-carbonyl)azetidin-3-yl)-2-(2,6-dioxopiperidin-3-yl)-6,7-dihydropyrrolo[3,4-f]isoindole-1,3(2H,5H)-dione]",C (“C”: >100 nM)
2,"C[C@@H]1Cc2c([nH]c3ccccc23)[C@@H](c2cnc(N3CC4(CCC(CN5Cc6cc7c(cc6C5)C(=O)N(C5CCC(=O)NC5=O)C7=O)CC4)C3)nc2)N1CC(C)(C)F (stereo partly drawn) [Compound B184, 2-(2,6-dioxopiperidin-3-yl)-6-((2-(5-((1R,3R)-2-(2-fluoro-2-methylpropyl)-3-methyl-2,3,4,9-tetrahydro-1H-pyrido[3,4-b]indol-1-yl)pyrimidin-2-yl)-2-azaspiro[3.5]nonan-7-yl)methyl) 6,7-dihydropyrrolo[3,4-f]isoindole-1,3(2H,5H)-dione]",C (“C”: >100 nM)
3,"C[C@@H]1Cc2c([nH]c3ccccc23)[C@@H](c2c(F)cc(N3CCC(N4Cc5cc6c(cc5C4)C(=O)N(C4CCC(=O)NC4=O)C6=O)CC3)cc2F)N1CC(F)F (stereo partly drawn) [Compound B31, 6-(1-(4-((1R,3R)-2-(2,2-difluoroethyl)-3-methyl-2,3,4,9-tetrahydro-1H-pyrido[3,4-b]indol-1-yl)-3,5-difluorophenyl)piperidin-4-yl)-2-(2,6-dioxopiperidin-3-yl)-6,7-dihydropyrrolo[3,4-f]isoindole-1,3(2H,5H)-dione]",C (“C”: >100 nM)
4,"C[C@@H]1Cc2c([nH]c3ccccc23)[C@@H](c2c(F)cc(N3CC4(CCN(CC(=O)N5Cc6cc7c(cc6C5)C(=O)N(C5CCC(=O)NC5=O)C7=O)C4)C3)cc2F)N1CC(F)F (stereo partly drawn) [Compound B17, 6-(2-(2-(4-((1R,3R)-2-(2,2-difluoroethyl)-3-methyl-2,3,4,9-tetrahydro-1H-pyrido[3,4-b]indol-1-yl)-3,5-difluorophenyl)-2,6-diazaspiro[3.4]octan-6-yl)acetyl)-2-(2,6-dioxopiperidin-3-yl)-6,7-dihydropyrrolo[3,4-f]isoindole-1,3(2H,5H)-dione]",B (“B”: 10-100 nM)
5,"C[C@@H]1Cc2c([nH]c3ccccc23)[C@@H](c2c(F)cc(N3CCC4(CC3)CN(C(=O)CN3Cc5cc6c(cc5C3)C(=O)N(C3CCC(=O)NC3=O)C6=O)C4)cc2F)N1CC(F)F (stereo partly drawn) [Compound B51, 6-(2-(7-(4-((1R,3R)-2-(2,2-difluoroethyl)-3-methyl-2,3,4,9-tetrahydro-1H-pyrido[3,4-b]indol-1-yl)-3,5-difluorophenyl)-2,7-diazaspiro[3.5]nonan-2-yl)-2-oxoethyl)-2-(2,6-dioxopiperidin-3-yl)-6,7-dihydropyrrolo[3,4-f]isoindole-1,3(2H,5H)-dione]",A (“A”: <10 nM)
6,"C[C@@H]1Cc2c([nH]c3ccccc23)[C@@H](c2c(F)cc(-c3ccc(CN4CCC(N5Cc6cc7c(cc6C5)C(=O)N(C5CCC(=O)NC5=O)C7=O)CC4)nc3)cc2F)N1CC(F)F (stereo partly drawn) [Compound B88, 6-(1-((5-(4-((1R,3R)-2-(2,2-difluoroethyl)-3-methyl-2,3,4,9-tetrahydro-1H-pyrido[3,4-b]indol-1-yl)-3,5-difluorophenyl)pyridin-2-yl)methyl)piperidin-4-yl)-2-(2,6-dioxopiperidin-3-yl)-6,7-dihydropyrrolo[3,4-f]isoindole-1,3(2H,5H)-dione]",C (“C”: >100 nM)
7,"COc1cc([C@H]2CC[C@H](C(=O)N3CCC(N4Cc5cc6c(cc5C4)C(=O)N(C4CCC(=O)NC4=O)C6=O)CC3)CC2)ccc1[C@@H]1c2[nH]c3ccccc3c2C[C@@H](C)N1CC(F)F (stereo partly drawn) [Compound B111, 6-(1-((1R,4r)-4-(4-((1R,3R)-2-(2,2-difluoroethyl)-3-methyl-2,3,4,9-tetrahydro-1H-pyrido[3,4-b]indol-1-yl)-3-methoxyphenyl)cyclohexane-1-carbonyl)piperidin-4-yl)-2-(2,6-dioxopiperidin-3-yl)-6,7-dihydropyrrolo[3,4-f]isoindole-1,3(2H,5H)-dione]",B (“B”: 10-100 nM)
8,"C[C@@H]1Cc2c([nH]c3ccccc23)[C@@H](c2c(F)cc(N3CC4(CCN(C(=O)CN5Cc6cc7c(cc6C5)C(=O)N(C5CCC(=O)NC5=O)C7=O)C4)C3)cc2F)N1CC(F)F (stereo partly drawn) [Compound B20, 6-(2-(2-(4-((1R,3R)-2-(2,2-difluoroethyl)-3-methyl-2,3,4,9-tetrahydro-1H-pyrido[3,4-b]indol-1-yl)-3,5-difluorophenyl)-2,6-diazaspiro[3.4]octan-6-yl)-2-oxoethyl)-2-(2,6-dioxopiperidin-3-yl)-6,7-dihydropyrrolo[3,4-f]isoindole-1,3(2H,5H)-dione]",A (“A”: <10 nM)
